Source: patent US11702404B2, “GLP-1R modulating compounds” (priority 2019, dated 2023)
Where two headings read alike, the source gives them in different places.

How the values were obtained:
[1] = Microsomal stability, human liver microsomes (predicted hepatic clearance); settings: predicted from in vitro microsomal stability data
GLP-1R = GLP-1R (Homo sapiens, UniProt P43220); test: GLP-1R activation: cAMP increase in CHO cells stably expressing GLP-1R; assay type: cell-based
[2] = cAMP increase, CHO cells stably expressing GLP-1R, 10 point dose response, 30 minutes incubation, read-out: EC50

Chain of GLP-1R (P43220 24-463): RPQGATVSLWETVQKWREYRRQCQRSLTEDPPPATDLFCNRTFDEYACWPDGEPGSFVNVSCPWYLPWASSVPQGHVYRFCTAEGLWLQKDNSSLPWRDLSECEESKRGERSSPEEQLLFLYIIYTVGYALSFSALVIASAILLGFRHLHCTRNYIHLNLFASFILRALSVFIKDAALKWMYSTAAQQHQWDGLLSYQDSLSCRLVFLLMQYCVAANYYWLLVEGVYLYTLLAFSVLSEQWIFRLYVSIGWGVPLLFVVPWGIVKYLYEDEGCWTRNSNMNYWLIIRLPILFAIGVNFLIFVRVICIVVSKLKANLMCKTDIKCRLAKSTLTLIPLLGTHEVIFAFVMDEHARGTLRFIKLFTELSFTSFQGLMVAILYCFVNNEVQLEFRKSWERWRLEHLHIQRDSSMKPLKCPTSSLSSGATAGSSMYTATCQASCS

| Compound | Predicted Hepatic Clearance (Pred. Cl.) [1] [mL/min/kg] | EC50 (GLP-1R; [2]) [nM] | EC50 (GLP-1R; EC50 (nM)) [nM] | EC50 (GLP-1R; read-out: EC50) [nM] |
| --- | --- | --- | --- | --- |
| N#Cc1ccc(COc2cccc(-c3cc(F)c(Cc4nc5ccc(C(=O)O)cc5n4C[C@@H]4CCO4)cc3F)n2)cc1 [Example 536, (S)-2-(4-(6-((4-cyanobenzyl)oxy)pyridin-2-yl)-2,5-difluorobenzyl)-1-(oxetan-2-ylmethyl)-1H-benzo[d]imidazole-6-carboxylic acid] | 2.42 | 0.04 |  |  |
| COCCn1c(Cc2c(F)cc(-c3cccc(OCc4ccc(C#N)cc4F)n3)cc2C#N)nc2ccc(C(=O)O)cc21 [Example 537, 2-(2-cyano-4-(6-((4-cyano-2-fluorobenzyl)oxy)pyridin-2-yl)-6-fluorobenzyl)-1-(2-methoxyethyl)-1H-benzo[d]imidazole-6-carboxylic acid] | 3.3 |  | 6.89 |  |
| CC(=O)N1CC(F)(F)C[C@@H]1Cn1c(Cc2cc(F)c(-c3cccc(OCc4ccc(C#N)cc4F)n3)cc2F)nc2ccc(C(=O)O)cc21 [Example 539, (R)-1-((1-acetyl-4,4-difluoropyrrolidin-2-yl)methyl)-2-(4-(6-((4-cyano-2-fluorobenzyl)oxy)pyridin-2-yl)-2,5-difluorobenzyl)-1H-benzo[d]imidazole-6-carboxylic acid] | 6.33 |  |  | 0.7 |
| N#Cc1ccc(COc2cccc(-c3cc(=O)n(Cc4nc5ccc(C(=O)O)cc5n4C[C@@H]4CCO4)cc3F)n2)c(F)c1 [Example 540, (S)-2-((6-((4-cyano-2-fluorobenzyl)oxy)-5′-fluoro-2′-oxo-[2,4′-bipyridin]-1′(2′H)-yl)methyl)-1-(oxetan-2-ylmethyl)-1H-benzo[d]imidazole-6-carboxylic acid] | 3.33 | 0.12 |  |  |
| COCCn1c(Cc2cc(F)c(-c3ccc(OC)c(OCc4ccc(C#N)cc4F)n3)cc2F)nc2ccc(C(=O)O)cc21 [Example 541, 2-(4-(6-((4-cyano-2-fluorobenzyl)oxy)-5-methoxypyridin-2-yl)-2,5-difluorobenzyl)-1-(2-methoxyethyl)-1H-benzo[d]imidazole-6-carboxylic acid] | 3.67 | 28.3 |  |  |
| COCCn1c(Cc2cc(F)c(-c3cccc(OCc4cccnc4OC(F)F)n3)cc2F)nc2ccc(C(=O)O)cc21 [Example 542, 2-(4-(6-((2-(difluoromethoxy)pyridin-3-yl)methoxy)pyridin-2-yl)-2,5-difluorobenzyl)-1-(2-methoxyethyl)-1H-benzo[d]imidazole-6-carboxylic acid] | 20 | 8.6 |  |  |
| [2H]C([2H])(Oc1cccc(-c2cc(F)c(Cc3nc4ccc(C(=O)O)cc4n3CCOC)cc2F)n1)c1ccc(C#N)cc1F [Example 543, 2-(4-(6-((4-cyano-2-fluorophenyl)methoxy-d2)pyridin-2-yl)-2,5-difluorobenzyl)-1-(2-methoxyethyl)-1H-benzo[d]imidazole-6-carboxylic acid] | 4.67 | 1.51 |  |  |
| COCCn1c(Cc2cc(F)c(-c3cccc(OCc4ccc(C(F)F)cc4F)n3)cc2F)nc2ccc(C(=O)O)cc21 [Example 544, 2-(4-(6-((4-(difluoromethyl)-2-fluorobenzyl)oxy)pyridin-2-yl)-2,5-difluorobenzyl)-1-(2-methoxyethyl)-1H-benzo[d]imidazole-6-carboxylic acid] | 3.17 | 0.96 |  |  |
| N#Cc1ccc(COc2cccc(-c3cc(F)c(Cc4nc5ccc(C(=O)O)cc5n4[C@H]4CCCOC4)cc3F)n2)c(F)c1 [Example 545, 2-(4-(6-((4-cyano-2-fluorobenzyl)oxy)pyridin-2-yl)-2,5-difluorobenzyl)-1-(tetrahydro-2H-pyran-3-yl)-1H-benzo[d]imidazole-carboxylic acid] | 6.67 | 6.9 |  |  |
| N#Cc1ccc(COc2cccc(-c3cc(F)c(Cc4nc5ccc(C(=O)O)cc5n4CC4CCOCC4)cc3F)n2)c(F)c1 [Example 546, 2-(4-(6-((4-cyano-2-fluorobenzyl)oxy)pyridin-2-yl)-2,5-difluorobenzyl)-1-((tetrahydro-2H-pyran-4-yl)methyl)-1H-benzo[d]imidazole-carboxylic acid] | 8.83 | 0.33 |  |  |
| N#Cc1ccc(COc2cccc(-c3cc(F)c(Cc4nc5ccc(C(=O)O)cc5n4C4CCOCC4)cc3F)n2)c(F)c1 [Example 547, 2-(4-(6-((4-cyano-2-fluorobenzyl)oxy)pyridin-2-yl)-2,5-difluorobenzyl)-1-(tetrahydro-2H-pyran-4-yl)-1H-benzo[d]imidazole-carboxylic acid] | 7.33 | 3.43 |  |  |
| N#Cc1ccc(COc2cccc(-c3ccc(Cc4nc5cc(C(=O)O)ccc5n4CC4(CF)CC4)c(F)c3)n2)c(F)c1 [Example 552, 2-(4-(6-((4-Cyano-2-fluorobenzyl)oxy)pyridin-2-yl)-2-fluorobenzyl)-1-((1-(fluoromethyl)cyclopropyl)methyl)-1H-benzo[d]imidazole-5-carboxylic acid] | <1.83 | 18.1 |  |  |
| COCCn1c(Cc2ccc(-c3cccc(OCc4ccc(C#N)cc4F)n3)cc2F)nc2cc(C(=O)O)ccc21 [Example 553, 2-(4-(6-((4-cyano-2-fluorobenzyl)oxy)pyridin-2-yl)-2-fluorobenzyl)-1-(2-methoxyethyl)-1H-benzo[d]imidazole-5-carboxylic acid] | 4.17 | 19.8 |  |  |
| COCCn1c(Cc2cc(F)c(-c3cccc(OCc4ccc(C(N)=O)cc4F)n3)cc2F)nc2ccc(C(=O)O)cc21 [Example 554, 2-(4-(6-((4-carbamoyl-2-fluorobenzyl)oxy)pyridin-2-yl)-2,5-difluorobenzyl)-1-(2-methoxyethyl)-1H-benzo[d]imidazole-6-carboxylic acid] | 4.17 | 48.2 |  |  |
| COCCn1c(Cc2ccc(-c3cccc(OCc4ccc(C#N)cc4F)n3)cc2F)nc2ccc(P(=O)(O)O)cc21 [Example 555, (2-(4-(6-((4-cyano-2-fluorobenzyl)oxy)pyridin-2-yl)-2-fluorobenzyl)-1-(2-methoxyethyl)-1H-benzo[d]imidazol-6-yl)phosphonic acid] | 1.83 | 57.9 |  |  |
| COCCn1c(Cc2cc(F)c(-c3cccc(OCc4ccc(C(F)(F)F)cc4F)n3)cc2F)nc2ccc(C(=O)O)cc21 [Example 557, 2-(2,5-difluoro-4-(6-((2-fluoro-4-(trifluoromethyl)benzyl)oxy)pyridin-2-yl)benzyl)-1-(2-methoxyethyl)-1H-benzo[d]imidazole-6-carboxylic acid] | 2.17 | 0.47 |  |  |
| COCCn1c(Cc2ccc(-c3ccnc(OCc4ccc(C#N)cc4F)n3)c(F)c2)nc2c(F)cc(C(=O)O)cc21 [Example 558, 2-(4-(2-((4-cyano-2-fluorobenzyl)oxy)pyrimidin-4-yl)-3-fluorobenzyl)-4-fluoro-1-(2-methoxyethyl)-1H-benzo[d]imidazole-6-carboxylic acid] | 4 | 22.4 |  |  |
| COC[C@H](C)n1c(Cc2cc(F)c(-c3cccc(OCc4ccc(C#N)cc4F)n3)cc2F)nc2ccc(C(=O)O)cc21 [Example 559, (S)-2-(4-(6-((4-cyano-2-fluorobenzyl)oxy)pyridin-2-yl)-2,5-difluorobenzyl)-1-(1-methoxypropan-2-yl)-1H-benzo[d]imidazole-6-carboxylic acid] | 6.83 | 2.62 |  |  |
| COC[C@@H](C)n1c(Cc2cc(F)c(-c3cccc(OCc4ccc(C#N)cc4F)n3)cc2F)nc2ccc(C(=O)O)cc21 [Example 560, (R)-2-(4-(6-((4-cyano-2-fluorobenzyl)oxy)pyridin-2-yl)-2,5-difluorobenzyl)-1-(1-methoxypropan-2-yl)-1H-benzo[d]imidazole-6-carboxylic acid] | 5.83 | 1.92 |  |  |
| N#Cc1ccc(COc2cccc(-c3cc(F)c(Cc4nc5ccc(C(=O)O)cc5n4CCN4CCOCC4)cc3F)n2)c(F)c1 [Example 561, 2-(4-(6-((4-cyano-2-fluorobenzyl)oxy)pyridin-2-yl)-2,5-difluorobenzyl)-1-(2-morpholinoethyl)-1H-benzo[d]imidazole-6-carboxylic acid] | 9.5 |  |  | 24.1 |
| COCCn1c(Cc2cc(F)c(-c3cccc(OCc4ccc(Cl)cc4F)n3)cc2F)nc2ccc(C(=O)O)cc21 [Example 563, 2-(4-(6-((4-chloro-2-fluorobenzyl)oxy)pyridin-2-yl)-2,5-difluorobenzyl)-1-(2-methoxyethyl)-1H-benzo[d]imidazole-6-carboxylic acid] | 3.67 | 1 |  |  |
| COCCn1c(Cc2cc(F)c(-c3cccc(OCc4cc(F)c(Cl)cc4F)n3)cc2F)nc2ccc(C(=O)O)cc21 [Example 564, 2-(4-(6-((4-chloro-2,5-difluorobenzyl)oxy)pyridin-2-yl)-2,5-difluorobenzyl)-1-(2-methoxyethyl)-1H-benzo[d]imidazole-6-carboxylic acid] | 3.42 | 1.96 |  |  |
| COCCn1c(Cc2cc(F)c(-c3cccc(OCc4cc(F)c(C#N)cc4F)n3)cc2F)nc2ccc(C(=O)O)cc21 [Example 565, 2-(4-(6-((4-cyano-2,5-difluorobenzyl)oxy)pyridin-2-yl)-2,5-difluorobenzyl)-1-(2-methoxyethyl)-1H-benzo[d]imidazole-6-carboxylic acid] | 6 | 4.91 |  |  |
| CO[C@H]1C[C@H](n2c(Cc3cc(F)c(-c4cccc(OCc5ccc(C#N)cc5F)n4)cc3F)nc3ccc(C(=O)O)cc32)C1 [Example 567, 2-(4-(6-((4-cyano-2-fluorobenzyl)oxy)pyridin-2-yl)-2,5-difluorobenzyl)-1-((1r,3r)-3-methoxycyclobutyl)-1H-benzo[d]imidazole-6-carboxylic acid] | 7.67 | 1130 |  |  |
